Results on six compounds are retold here after patent US20100203125A1, “SYNERGISTIC ANTIBACTERIAL FORMULATION AND A METHOD OF MAKING THE SAME” (priority 2004, published 2010).

SMILES strings stand for the structures. In brackets after ≈: the same amount, converted by molar mass. Read-outs that look alike come from different tables or passages of the source.

For data set [1] the following is noted: in vivo; cited from earlier work.
For data set [2] the following is noted: cited from earlier work.
Data set [3] is described as follows: Plasma concentration levels of cefixime and dicloxacillin formulation (Table 4). The note with it: in vivo.
Data set [4] can be described thus: Clinical Trial 2, comparative plasma concentration study. The note with it: for Plasma concentration from the formulation compared with conventional separate dosing: human, in vivo. How it is done:
Comparative studies were conducted on 24 healthy male patients who were pre-tested for non-allergic conditions against Betalactam and Cephalsporin antibiotics.

The subject of another data set is plasma proteins. The note with it: cited from earlier work.
For data set [5] the following is noted: in vivo, cited from earlier work; for Bioavailability after oral administration / Serum half-life / half life: human.
The test system of a further data set is Staphylococcus aureus. The conditions noted are these: cited from earlier work.
Another data set has as its system Neisseria gonorrhoeae. The note with it: cited from earlier work.
A further data set concerns Streptococcus pyogenes. The conditions noted are these: cited from earlier work.
Data set [6] has as its system Staphylococcus epidermidis. The conditions noted are these: cited from earlier work.
The next data set concerns Streptococcus pneumoniae. The conditions noted are these: cited from earlier work.
The next data set deals with E. coli [C1]. In words: Zone of inhibition study. It counts as cell-based. The note with it: 37° C. 24 hours, excluding well diameter. How it is done: (§1) Quantitative methods of susceptibility testing that require measurements of zone diameters give the most precise estimates of antibiotic susceptibility. Zone of inhibition study was performed Cefixime and dicloxacillin combination with suitable concentration and compare with the zone of inhibition of individual antibiotic to study the synergy. Nutrient Agar plates (duplicate sets) were used for inoculation of microorganism culture using spread plate technique. Wells of 6.0 mm diameter were made in agar plate and test and standard antibiotics preparations were placed in the respective wells. Suitable control plates and plates with no antibiotics were simultaneously then inoculated after appropriate dilution on separate nutrient agar plates (duplicate sets) using spread plate technique. […] All the diameters [zone of inhibition] were measure excluding the well diameter. Four species of bacteria namely E. coli [C1], S. aureus [C2], Salmonella typhimurium [C3], and S. epidermidis [C4] were selected for zone of inhibition study. […] There was no zone of inhibitions found for control plates.

Data set [7] relates to Salmonella typhimurium [C3]. The experiment in a line: Zone of inhibition study. It counts as cell-based. The conditions noted are these: 37° C. 24 hours, excluding well diameter. Here is the method:
as §1

The subject of the next data set is S. epidermidis [C4]. In words: Zone of inhibition study. Type of data set: cell-based. The conditions noted are these: 37° C. 24 hours, excluding well diameter. How it is done: as §1
In the next data set the test system is S. aureus [C2]. In words: Zone of inhibition study. It counts as cell-based. The note with it: 37° C. 24 hours, excluding well diameter. How it is done: as §1

In the case of `C=CC1=C(C(=O)O)N2C(=O)[C@@H](NC(=O)/C(=N\OCC(=O)O)c3csc(N)n3)[C@H]2SC1` [Cefixime], in data set [1], the Acute toxicity result was “negligibly low”. Also, the “Solubility in dehydrated alcohol” value in [2] is recorded as “sparingly soluble”. The “Solubility in ethyl acetate” value in [2] is given as “practically insoluble”. The “Solubility in methyl alcohol” value in [2] is reported as “freely soluble”. The Solubility in water entry in data set [2] is “slightly soluble”. The same compound displayed a concentration at 0 h in [3] of 0 ng/mL. For the same compound, the concentration at 0.5 h in data set [3] is 360 ng/mL. The compound also displayed a concentration at 1 h in data set [3] of 520 ng/mL. The concentration at 2 h in data set [3] was 1340 ng/mL. In data set [3], this compound registered a concentration at 3 h of 1620 ng/mL. The compound further displayed a concentration at 4 h in data set [3] of 1840 ng/mL. In [3], the concentration at 6 h was found to be 1560 ng/mL. The compound further returned a concentration at 8 h in data set [3] of 980 ng/mL. The concentration at 10 h in data set [3] is 600 ng/mL. This compound also came in with a concentration at 12 h in [3] of 500 ng/mL. Also, the concentration at 14 h in data set [3] was found to be 350 ng/mL. In data set [3], this compound had a concentration at 16 h of 200 ng/mL. The compound further returned a concentration at 20 h in data set [3] of 0 ng/mL. Also, in data set [3], the concentration at 24 h is 0 ng/mL. In addition, the “Plasma concentration from the formulation compared with conventional separate dosing” value in [4] is given as “better”. For the same compound, the Blood plasma conc in data set [4] (separate tablets (Cloxacillin 250 mg × 2, Cefixime 200 mg), 1 hrs) amounted to 0.46; in data set [4] (separate tablets (Cloxacillin 250 mg × 2, Cefixime 200 mg), 2 hrs), 1.23; in data set [4] (separate tablets (Cloxacillin 250 mg × 2, Cefixime 200 mg), 3 hrs) it was 1.52; in [4] (separate tablets (Cloxacillin 250 mg × 2, Cefixime 200 mg), 4 hrs), 1.79; in [4] (separate tablets (Cloxacillin 250 mg × 2, Cefixime 200 mg), 6 hrs), 1.14; in [4] (separate tablets (Cloxacillin 250 mg × 2, Cefixime 200 mg), 8 hrs) it was 0.88. For the same compound, the Blood plasma conc in data set [4] (separate tablets (Cloxacillin 250 mg × 2, Cefixime 200 mg), 9 hrs) stood at 0.72; in [4] (separate tablets (Cloxacillin 250 mg × 2, Cefixime 200 mg), 10 hrs) it was 0.6; in data set [4] (separate tablets (Cloxacillin 250 mg × 2, Cefixime 200 mg), 12 hrs), 0.5; in data set [4] (separate tablets (Cloxacillin 250 mg × 2, Cefixime 200 mg), 14 hrs), 0.36; in [4] (separate tablets (Cloxacillin 250 mg × 2, Cefixime 200 mg), 16 hrs), 0.2; in data set [4] (separate tablets (Cloxacillin 250 mg × 2 at 6 hour interval, Cefixime 200 mg), 0 hrs, average of 24), 0. Also, the Blood plasma conc in data set [4] (synergetic formulation (Cloxacillin 500 mg, Cefixime in combination), 0 hrs, average of 24) turned out to be 0; in data set [4] (synergetic formulation (Cloxacillin 500 mg, Cefixime in combination), 1 hrs) it was 0.7; in [4] (synergetic formulation (Cloxacillin 500 mg, Cefixime in combination), 2 hrs), 1.4; in [4] (synergetic formulation (Cloxacillin 500 mg, Cefixime in combination), 3 hrs), 1.58; in data set [4] (synergetic formulation (Cloxacillin 500 mg, Cefixime in combination), 4 hrs) it was 2.01; in [4] (synergetic formulation (Cloxacillin 500 mg, Cefixime in combination), 6 hrs), 1.52. Moreover, the Blood plasma conc in data set [4] (synergetic formulation (Cloxacillin 500 mg, Cefixime in combination), 8 hrs) is 1.03; in [4] (synergetic formulation (Cloxacillin 500 mg, Cefixime in combination), 9 hrs), 0.91; in [4] (synergetic formulation (Cloxacillin 500 mg, Cefixime in combination), 10 hrs) it was 0.72; in [4] (synergetic formulation (Cloxacillin 500 mg, Cefixime in combination), 12 hrs), 0.6; in data set [4] (synergetic formulation (Cloxacillin 500 mg, Cefixime in combination), 14 hrs) it was 0.34; in [4] (synergetic formulation (Cloxacillin 500 mg, Cefixime in combination), 16 hrs) it was 0.18. Moreover, the Plasma protein binding in the data set on plasma proteins (Table 1) is listed as 60-70%. Also, in data set [5] (po), the Oral absorption is 50%. In data set [5] (po), the “Oral dose absorbed from the gastrointestinal tract” value was 40-50%. For the same compound, the “Eliminated by nonrenal mechanisms” value in data set [5] is on record as “Up to 60%”. Also, the Plasma half-life in [5] is 180 min. The “Urinary Excretion” value in data set [5] is given as 34-48%. In [5], the “Vol Distribution” value is given as 0.30 ± 0.03.
In the case of `Cc1onc(-c2ccccc2Cl)c1C(=O)N[C@@H]1C(=O)N2[C@@H]1SC(C)(C)[C@@H]2C(=O)O` [Cloxacillin sodium, chlorphenylmethyl isoxazolyl penicillin sodium], the “Bioavailability after oral administration” value (shortened to “Bioavailability”) in data set [5] (po) is 37-60%.
For orientation: MIC90 means an inhibitory concentration at the 90% level, which refers to growth in some studies and to a panel of isolates in others. As a reminder, the Cmax is the highest concentration seen after dosing. In the case of `Cc1onc(-c2ccccc2Cl)c1C(=O)N[C@@H]1C(=O)N2[C@@H]1SC(C)(C)[C@@H]2C(=O)O` [Cloxacillin], the MIC90 in the data set with Staphylococcus aureus was 0.1 µg/mL (≈ 0.229 µM); with Neisseria gonorrhoeae, 0.1 µg/mL (≈ 0.229 µM); with Streptococcus pyogenes, 0.1 µg/mL (≈ 0.229 µM); in data set [6], 0.1 µg/mL (≈ 0.229 µM); in the data set with Streptococcus pneumoniae, 0.25 µg/mL (≈ 0.574 µM). In addition, the “Plasma concentration from the formulation compared with conventional separate dosing” value in data set [4] is given as “significantly better plasma concentration”. Also, the Plasma protein binding with plasma proteins (plasma) is on record as 93-95%. For the same compound, the “Serum half-life / half life” value in [5] was 24 to 48 min. The Urinary clearance rate in data set [5] (iv) is 162.2 mL/min. In data set [5], the maximum concentration (Cmax) is 8000 ng/mL. Also, the Half life in data set [5] is 38 min. For the same compound, the Plasma half life in data set [5] is 0.5 h-0.65. Moreover, in data set [5], the Plasma half-life was 30 to 90 min.
For `Cc1onc(-c2c(Cl)cccc2Cl)c1C(=O)N[C@@H]1C(=O)N2[C@@H]1SC(C)(C)[C@@H]2C(=O)O` [Dicloxacillin], the Zone of inhibition with E. coli [C1] is reported as 9 mm. Moreover, the Zone of inhibition in data set [7] worked out at 10 mm. For the same compound, in the data set on S. epidermidis [C4], the Zone of inhibition was 15 mm. Further, the Zone of inhibition with S. aureus [C2] is given as 15 mm. In the data set “in vivo”, this compound registered a concentration at 0 h of 0 ng/mL, a concentration at 0.5 h of 700 ng/mL, a concentration at 1 h of 810 ng/mL and a concentration at 2 h of 2260 ng/mL. In “in vivo”, this compound returned a concentration at 3 h of 3100 ng/mL, a concentration at 4 h of 3940 ng/mL, a concentration at 6 h of 4100 ng/mL and a concentration at 8 h of 2960 ng/mL. Further, in “in vivo”, the concentration at 10 h came out at 2400 ng/mL, the concentration at 12 h stood at 1380 ng/mL, the concentration at 14 h was determined as 630 ng/mL and the concentration at 16 h was 300 ng/mL. Besides, in “in vivo”, the concentration at 20 h stood at 0 ng/mL and the concentration at 24 h came to 0 ng/mL. Also, in the data set on plasma proteins (plasma), the “Bound to plasma proteins” value is on record as 90-98% and the Plasma protein binding is 90-98%. Also, in data set [5] (po), the “Bioavailability” value was 60-80% and the Oral absorption was 60-80%. Also, in data set [5], the “Excreted into the urine” value is listed as “about 60%”, the Plasma half life is 0.5 to 1 h, the Plasma half-life was 30 to 90 min and the “Urinary Excretion” value is given as 60%. Further, in data set [5], the “Vol Distribution” value is given as 0.1 mL/g and the Volume of distribution is recorded as 0.1 mL/g.
As for `Cc1onc(-c2ccccc2)c1C(=O)NC1C(=O)N2[C@@H]1SC(C)(C)[C@@H]2C(=O)[O-].[Na+]` (stereo partly drawn) [Oxacillin sodium], the “Bioavailability” value in [5] (po) is recorded as 30-35%.
As to `Cc1onc(-c2ccccc2)c1C(=O)N[C@@H]1C(=O)N2[C@@H]1SC(C)(C)[C@@H]2C(=O)O` [oxacillin], the “Bound to plasma proteins” value in the data set on plasma proteins (plasma) is recorded as 89-94%. Also, the “Serum half-life / half life” value in data set [5] was 18 to 48 min.
